From publication PMC4259414, “HS-133, a novel fluorescent phosphatidylinositol 3-kinase inhibitor as a potential imaging and anticancer agent for targeted therapy” (Oncotarget, 2014)
Read-outs that look alike come from different tables or passages of the source.

Assays:
SkBr3 cells = experiment: cell viability MTT assay, SkBr3; format: cell-based; details: Homo sapiens, SK-BR-3, 48 h, SkBr3, 48 h, read-out: IC50, cell growth inhibition
Description: (§1) To determine whether HS-133 can function as a novel anticancer compound, we tested the ability of this compound to inhibit the growth of breast cancer cell lines (SkBr3, T47D, and MCF-7) using an MTT assay. The cells were exposed to various concentrations (0.5–50 μM) of HS-133 for 48 h. As shown in Fig. 3A-C, HS-133 inhibited the growth of all three breast cancer cell lines in a dose-dependent manner.
(§2) Cell viability was performed by an MTT assay. Briefly, the SkBr3, T47D, and MCF-7 cells were plated at a density of 1-5 × 10^3 cells/well in a 96-well plate for 48 h. The medium was removed, and the cells were treated with either DMSO as control or various concentrations of HS-133. The final concentration of DMSO in the medium was ≤ 0.1% (v/v). After the cells were incubated for 48 h, 20 μl of MTT solutions (2 mg/ml) was added to each well for another 4 h at 37°C. The formazan crystals that formed were dissolved in DMSO (200 μl/well) via constant shaking for 5 min. The plate was then read on a microplate reader at 540 nm. Three replicate wells were used for each analysis. The median inhibitory concentration (IC50, defined as the drug concentration at which cell growth was inhibited by 50%) was assessed from the dose-response curves.

[1] = system: PI3K/Akt pathway in SkBr3 cells; experiment: Western blotting of PI3K/Akt signaling in SkBr3 cells; format: cell-based, human; details: SkBr3, 1–50 μM, 6 h
Description: It has been shown that breast tumor cell growth is closely related to the activation of the PI3K/Akt pathway. […] Therefore, we evaluated the effects of HS-133 on the PI3K/Akt pathway in breast cancer cells. The PI3K inhibitory activity of HS-133 was assessed in the SkBr3 cells.
The cells were washed three times with ice-cold PBS before lysis, and were lysed with a buffer containing 1% Triton X-100, 1% Nonidet P-40 (NP-40), as well as protease and phosphatase inhibitor cocktails (GenDEPOT, Barker, TX). Equal amounts of protein were separated by 10% sodium dodecyl sulfate-polyacrylamide gel electrophoresis (SDS-PAGE) and transferred onto the polyvinylidene fluoride (PVDF) membranes (Millipore, Bedford, MA). Immunostaining was performed by incubating the blots with primary antibodies, followed by horseradish peroxidase (HRP)-conjugated secondary antibody and detected with an enhanced chemiluminescence (ECL) plus system (Amersham Biosciences, Piscataway, NJ). The primary mouse antibodies against the following factors were used: p27 (Cell Signaling Technologies, Danvers, MA), cyclin D1, hypoxia-inducible factor-1α (HIF-1α, BD Biosciences, SanJose, CA), VEGF (Novus Biologicals, Littleton, CO) and β-actin (Abcam, Cambridge, MA). […]

HUVECs = experiment: tube formation assay; format: cell-based, human; details: 20 h
Description: To examine the effect of HS-133 on angiogenesis, a capillary tube formation assay using human umbilical vein endothelial cells (HUVECs) was performed. […] Cell migration is critical for the endothelial cells to form blood vessels during angiogenesis, and is necessary for tumor growth and metastasis. Thus, we conducted a wound migration assay to study the effect of HS-133 on cell migration. […] Considering that endothelial migration and tube formation have all highly relevant properties of angiogenesis, our results illustrated that HS-133 has the ability to block angiogenesis.
A 10 mg/ml (200 μl) of Matrigel (BD Biosciences) was polymerized for 30 min at 37°C. HUVECs were suspended in M199 (2% FBS) medium containing VEGF (50 ng/ml) at a density of 2.5 × 10^5 cells/ml, and 0.2 ml of cell suspension was added to each well coated with Matrigel, together with or without the indicated concentrations of HS-133 for 20 h. The morphological changes of the cells and tubes formed were observed under a phase-contrast microscope and photographed at 200× and 400× magnification.

MCF-7 cells = experiment: cell viability MTT assay, MCF-7; format: cell-based; details: Homo sapiens, MCF7, MCF-7, 48 h, read-out: IC50, cell growth inhibition
Description: as §1, §2

[2] = tissue distribution, tissue-to-plasma ratio; format: in vivo, BALB/c nude mice bearing SkBr3 xenograft; details: BALB/c nude, mouse, PO 10 mg/kg, 30 min post-dose
Description: Various tissue concentrations, such as the heart, lung, liver, kidney, spleen, brain, and tumor in BALB/c nude mice bearing SkBr3 xenograft are shown in Fig. 9B. The ratios of each tissue-to-plasma (KP value) were 3.26, 4.18, 0.11, 1.99, 3.07, 4.99, and 2.06 for the heart, lung, liver, kidney, spleen, brain, and tumor, respectively. […] Thus, this high concentration level of HS-133 in tumor tissues may be contributed to in vivo efficacy in the SkBr3 xenograft model.
The heart, lung, liver, kidney, brain, spleen, and tumor were collected at 30 min post-dose from 3 different animals at each time point, rinsed with ice-cold saline, weighed and stored at −80°C until analysis. For HS-133 quantification, mouse tissues were homogenized with three times the volume of PBS. The homogenates were extracted by protein precipitation with acetonitrile. LC-MS/MS analysis was conducted as described for the plasma. The homogenate concentrations were converted to tissue concentrations for the calculations of each tissue-to-plasma ratio.

[3] = pharmacokinetic study in mouse; format: in vivo; details: plasma, ICR mice; for AUC(0-t): read-out: AUC0–24hr; for half-life: read-out: T1/2, λ (converted)

CC(=O)Nc1ccc(-c2nc3c(c(=O)n(C)c(=O)n3C)n2-c2cccc(F)c2)cc1 [HS-133, N-(4-(7-(3-Fluorophenyl)-1,3-dimethyl-2,6-dioxo-2,3,6,7-tetrahydro-1H-purin-8-yl)phenyl) acetamide]
IC50 (SkBr3 cells): 46.8 µM
phosphorylation of Akt, mTOR, p70S6K and 4E-BP1 [1]: effectively suppressed
capillary tube formation (HUVECs): inhibited the formation of vessel-like structures
IC50 (MCF-7 cells): 9.15 µM
Kp at 0.5 h ([2]; brain, read-out: tissue-to-plasma ratio (KP value), brain): 4.99
Kp at 0.5 h ([2]; heart, read-out: tissue-to-plasma ratio (KP value), heart): 3.26
Kp at 0.5 h ([2]; kidney, read-out: tissue-to-plasma ratio (KP value), kidney): 1.99
Kp at 0.5 h ([2]; liver, read-out: tissue-to-plasma ratio (KP value), liver): 0.11
Kp at 0.5 h ([2]; lung, read-out: tissue-to-plasma ratio (KP value), lung): 4.18
Kp at 0.5 h ([2]; spleen, read-out: tissue-to-plasma ratio (KP value), spleen): 3.07
Kp at 0.5 h ([2]; tumor, read-out: tissue-to-plasma ratio (KP value), tumor): 2.06
Tmax ([3]; ICR, po, 5 mg/kg, p.o. 5 mg/kg): ~4.8 h
AUC(0-inf) ([3]; iv, i.v. 5 mg/kg): 3410 ng·h/mL
MRT ([3]; iv, i.v. 5 mg/kg): 8.2 ± 0.8 h
clearance ([3]; iv, i.v. 5 mg/kg): 24.7 mL/min/kg
AUC(0-t) ([3]; iv, i.v. 5 mg/kg): 3190 ng·h/mL
half-life ([3]; iv, i.v. 5 mg/kg): 6.4 ± 0.92 h
Vd ([3]; iv, i.v. 5 mg/kg, read-out: Vss): 12 L/kg
bioavailability ([3]; oral, p.o. vs i.v. 5 mg/kg, read-out: F (bioavailability)): 95.6%
AUC(0-inf) ([3]; po, p.o. 5 mg/kg): 3260 ng·h/mL
Cmax ([3]; po, p.o. 5 mg/kg): 236 ± 34 ng/mL
MRT ([3]; po, p.o. 5 mg/kg): 9.5 ± 1.9 h
AUC(0-t) ([3]; po, p.o. 5 mg/kg): 3000 ng·h/mL
half-life ([3]; po, p.o. 5 mg/kg): 6.1 ± 1.4 h
